Data reported in patent publication US8877769B2, “Heteroaryl-substituted urea modulators of fatty acid amide hydrolase” (Janssen Pharmaceutica NV, priority 2008, dated 2014).

What was measured:
[1] = target: T1, Rat FAAH (Rattus norvegicus, UniProt P97612); assay: Assay Method 2: FAAH assay, 3H-anandamide hydrolysis in cell homogenate; assay type: biochemical; conditions: average of results obtained, > value = solubility limit or highest concentration tested
T1 construct: expressed in transfected cells
T1 sequence (P97612 1-579): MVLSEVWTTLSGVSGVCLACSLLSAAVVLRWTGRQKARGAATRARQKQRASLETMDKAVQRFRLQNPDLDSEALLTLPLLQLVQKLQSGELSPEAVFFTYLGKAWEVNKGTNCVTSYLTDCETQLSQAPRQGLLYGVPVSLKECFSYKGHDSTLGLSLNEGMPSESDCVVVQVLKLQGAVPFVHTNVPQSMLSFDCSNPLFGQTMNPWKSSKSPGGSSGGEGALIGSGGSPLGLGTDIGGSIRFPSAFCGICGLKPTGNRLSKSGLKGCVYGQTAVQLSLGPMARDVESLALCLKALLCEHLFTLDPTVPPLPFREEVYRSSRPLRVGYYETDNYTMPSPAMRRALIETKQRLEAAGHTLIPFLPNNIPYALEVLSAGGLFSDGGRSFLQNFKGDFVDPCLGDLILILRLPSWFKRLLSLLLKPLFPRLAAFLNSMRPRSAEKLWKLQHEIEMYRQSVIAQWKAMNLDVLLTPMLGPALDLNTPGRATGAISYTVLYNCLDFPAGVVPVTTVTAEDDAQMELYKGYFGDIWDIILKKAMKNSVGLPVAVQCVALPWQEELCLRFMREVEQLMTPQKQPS
Description: A. Transfection of Cells with Rat FAAH
The assay mixture consisted of 50 μL of the cell homogenate, 10 μL of the test compound, and 40 μL of anandamide [1-^3H-ethanolamine] (^3H-AEA, Perkin-Elmer, 10.3 Ci/mmol), which was added last, for a final tracer concentration of 80 nM. The reaction mixture was incubated at rt for 1 h. During the incubation, 96-well Multiscreen filter plates (catalog number MAFCNOB50; Millipore, Bedford, Mass., USA) were loaded with 25 μL of activated charcoal (Multiscreen column loader, catalog number MACL09625, Millipore) and washed once with 100 μL of MeOH. […] After the 1 h incubation, 60 μL of the reaction mixture were transferred to the charcoal plates, which were then assembled on top of the DYNEX plates using Centrifuge Alignment Frames (catalog number MACF09604, Millipore). The unbound labeled ethanolamine was centrifuged through to the bottom plate (5 min at 2000 rpm), which was preloaded with the scintillant, as described above. The plates were sealed and left at rt for 1 h before counting on a Hewlett Packard TopCount.

[2] = target: T2, FAAH (Homo sapiens, UniProt O00519); assay: Assay Method 1: FAAH assay, 3H-anandamide hydrolysis in cell homogenate
T2 sequence (O00519 1-579): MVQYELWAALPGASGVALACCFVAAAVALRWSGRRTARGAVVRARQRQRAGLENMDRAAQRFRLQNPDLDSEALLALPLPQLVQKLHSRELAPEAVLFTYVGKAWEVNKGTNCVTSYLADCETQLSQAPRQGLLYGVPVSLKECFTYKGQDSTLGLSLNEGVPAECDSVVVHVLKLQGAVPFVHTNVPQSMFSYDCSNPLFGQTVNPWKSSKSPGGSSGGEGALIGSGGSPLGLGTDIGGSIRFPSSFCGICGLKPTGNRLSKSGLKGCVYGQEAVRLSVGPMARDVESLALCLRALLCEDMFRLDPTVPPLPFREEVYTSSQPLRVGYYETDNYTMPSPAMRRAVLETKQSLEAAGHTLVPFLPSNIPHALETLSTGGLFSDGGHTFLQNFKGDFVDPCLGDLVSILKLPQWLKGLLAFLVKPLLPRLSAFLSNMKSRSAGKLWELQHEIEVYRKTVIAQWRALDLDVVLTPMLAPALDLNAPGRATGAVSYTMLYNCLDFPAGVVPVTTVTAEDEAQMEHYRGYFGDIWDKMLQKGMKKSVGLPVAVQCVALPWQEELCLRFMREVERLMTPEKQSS
Description: The assay mixture consisted of 50 μL of the cell homogenate, 10 μL of the test compound, and 40 μL of anandamide [1-^3H-ethanolamine] (^3H-AEA, Perkin-Elmer, 10.3 Ci/mmol), which was added last, for a final tracer concentration of 80 nM. The reaction mixture was incubated at rt for 1 h. During the incubation, 96-well Multiscreen filter plates (catalog number MAFCNOB50; Millipore, Bedford, Mass., USA) were loaded with 25 μL of activated charcoal (Multiscreen column loader, catalog number MACL09625, Millipore) and washed once with 100 μL of MeOH. […] After the 1 h incubation, 60 μL of the reaction mixture were transferred to the charcoal plates, which were then assembled on top of the DYNEX plates using Centrifuge Alignment Frames (catalog number MACF09604, Millipore). The unbound labeled ethanolamine was centrifuged through to the bottom plate (5 min at 2000 rpm), which was preloaded with the scintillant, as described above. The plates were sealed and left at rt for 1 h before counting on a Hewlett Packard TopCount. • Assay Method 2

Row | SMILES | IC50 [1] | IC50 [2]
1 | O=C(Nc1cnc2cccnn12)N1CCN(Cc2ccc3c(c2)OC(F)(F)O3)CC1 [Example 3, 4-(2,2-Difluoro-benzo[1,3]dioxol-5-ylmethyl)-piperazine-1-carboxylic acid imidazo[1,2-b]pyridazin-3-ylamide] | 160 nM | 230 nM
2 | O=C(Nc1noc2ncccc12)N1CCN(Cc2ccc3c(c2)OC(F)(F)O3)CC1 [Example 5, 4-(2,2-Difluoro-benzo[1,3]dioxol-5-ylmethyl)-piperazine-1-carboxylic acid isoxazolo[5,4-b]pyridin-3-ylamide] | 8000 nM | 1600 nM
3 | O=C(Nc1noc2ncccc12)N1CCN(Cc2ccc(Br)c(F)c2)CC1 [Example 6, 4-(4-Bromo-3-fluoro-benzyl)-piperazine-1-carboxylic acid isoxazolo[5,4-b]pyridin-3-ylamide] | > 10000 nM | 
4 | O=C(Nc1noc2ncccc12)N1CCN(Cc2ccc3c(c2)OCO3)CC1 [Example 7, 4-Benzo[1,3]dioxol-5-ylmethyl-piperazine-1-carboxylic acid isoxazolo[5,4-b]pyridin-3-ylamide] | > 10000 nM | > 10000 nM
5 | O=C(Nc1noc2ncccc12)N1CCN(Cc2cccc(Oc3ccccc3Cl)c2)CC1 [Example 8, 4-[3-(2-Chloro-phenoxy)-benzyl]-piperazine-1-carboxylic acid isoxazolo[5,4-b]pyridin-3-ylamide] | 8000 nM | 1500 nM
6 | O=C(Nc1noc2ncccc12)N1CCN(Cc2ccc3cc[nH]c3c2)CC1 [Example 9] | > 10000 nM | > 10000 nM
7 | O=C(Nc1noc2ncccc12)N1CCN(Cc2cnc3ccccc3c2)CC1 [Example 10, 4-Quinolin-3-ylmethyl-piperazine-1-carboxylic acid isoxazolo[5,4-b]pyridin-3-ylamide] | > 10000 nM | > 10000 nM
8 | O=C(Nc1noc2ncccc12)N1CCN(Cc2ccc3ccccc3c2)CC1 [Example 29, 4-Naphthalen-2-ylmethyl-piperazine-1-carboxylic acid isoxazolo[5,4-b]pyridin-3-ylamide] |  | 370 nM
9 | O=C(Nc1cccc2cn[nH]c12)N1CCN(Cc2cccc(Oc3ccc(Cl)cc3)c2)CC1 [Example 48, 4-[3-(4-Chloro-phenoxy)-benzyl]-piperazine-1-carboxylic acid (1H-indazol-7-yl)-amide] | 3000 nM | 
10 | O=C(Nc1cccc2cn[nH]c12)N1CCN(Cc2ccc3c(c2)OC(F)(F)O3)CC1 [Example 49, 4-(2,2-Difluoro-benzo[1,3]dioxol-5-ylmethyl)-piperazine-1-carboxylic acid (1H-indazol-7-yl)-amide] |  | > 10000 nM
11 | O=C(Nc1ccc2nccn2c1)N1CCN(Cc2cccc(Oc3ccc(Cl)cc3)c2)CC1 [Example 50, 4-[3-(4-Chloro-phenoxy)-benzyl]-piperazine-1-carboxylic acid imidazo[1,2-a]pyridin-6-ylamide] | 1200 nM | 
12 | O=C(Nc1cnc2ccccn12)N1CCN(Cc2ccc3c(c2)OC(F)(F)O3)CC1 [Example 58, 4-(2,2-Difluoro-benzo[1,3]dioxol-5-ylmethyl)-piperazine-1-carboxylic acid imidazo[1,2-a]pyridin-3-ylamide] | 2000 nM | 
13 | Cc1nc2cc(NC(=O)N3CCN(Cc4cccc(Oc5ccc(Cl)cc5)c4)CC3)ccc2o1 [Example 63, 4-[3-(4-Chloro-phenoxy)-benzyl]-piperazine-1-carboxylic acid (2-methyl-benzooxazol-5-yl)-amide] | 120 nM | 
14 | O=C(Nc1nc2ccccc2o1)N1CCN(Cc2cccc(Oc3ccc(Cl)cc3)c2)CC1 [Example 66, 4-[3-(4-Chloro-phenoxy)-benzyl]-piperazine-1-carboxylic acid benzooxazol-2-ylamide] |  | 880 nM
15 | O=C(Nc1ccn2ccnc2c1)N1CCN(Cc2cccc(Oc3ccc(Cl)cc3)c2)CC1 [Example 72, 4-[3-(4-Chloro-phenoxy)-benzyl]-piperazine-1-carboxylic acid imidazo[1,2-a]pyridin-7-ylamide] | 660 nM | 
16 | O=C(Nc1cc2nccn2cn1)N1CCN(Cc2cccc(Oc3ccc(Cl)cc3)c2)CC1 [Example 74, 4-[3-(4-Chloro-phenoxy)-benzyl]-piperazine-1-carboxylic acid imidazo[1,2-c]pyrimidin-7-ylamide] | 500 nM | 
17 | O=C(Nc1ccn2ccnc2n1)N1CCN(Cc2cccc(Oc3ccc(Cl)cc3)c2)CC1 [Example 75, 4-[3-(4-Chloro-phenoxy)-benzyl]-piperazine-1-carboxylic acid imidazo[1,2-a]pyrimidin-7-ylamide] | 830 nM | 

Continued by falling IC50 [1], values first:

Row | IC50 [1] | IC50 [2] | SMILES
18 | 110 nM | 62 nM | O=C(Nc1cnc2cccnn12)N1CCN(Cc2ccc(Cl)c(Cl)c2)CC1 [Example 2, 4-(3,4-Dichloro-benzyl)-piperazine-1-carboxylic acid imidazo[1,2-b]pyridazin-3-ylamide]
19 | 98 nM |  | O=C(Nc1cnc2ccccn12)N1CCN(Cc2cccc(Oc3ccc(Cl)cc3)c2)CC1 [Example 57, 4-[3-(4-Chloro-phenoxy)-benzyl]-piperazine-1-carboxylic acid imidazo[1,2-a]pyridin-3-ylamide]
20 | 40 nM |  | O=C(Nc1noc2ccncc12)N1CCN(Cc2cccc(Oc3ccc(Cl)cc3)c2)CC1 [Example 40, 4-[3-(4-Chloro-phenoxy)-benzyl]-piperazine-1-carboxylic acid isoxazolo[4,5-c]pyridin-3-ylamide]
21 | 31 nM |  | O=C(Nc1ccnc2nccn12)N1CCN(Cc2cccc(Oc3ccc(Cl)cc3)c2)CC1 [Example 76, 4-[3-(4-Chloro-phenoxy)-benzyl]-piperazine-1-carboxylic acid imidazo[1,2-a]pyrimidin-5-ylamide]
22 | 30 nM | 54 nM | O=C(Nc1cnc2cccnn12)N1CCN(Cc2ccc(OC(F)(F)F)c(Cl)c2)CC1 [Example 4, 4-(3-Chloro-4-trifluoromethoxy-benzyl)-piperazine-1-carboxylic acid imidazo[1,2-b]pyridazin-3-ylamide]
23 | 22 nM |  | O=C(Nc1nocc1Cl)N1CCN(Cc2cccc(Oc3ccc(Cl)cc3)c2)CC1 [Example 85, 4-[3-(4-Chloro-phenoxy)-benzyl]-piperazine-1-carboxylic acid (4-chloro-isoxazol-3-yl)-amide]
24 | 17 nM |  | O=C(Nc1noc2cccnc12)N1CCN(Cc2cccc(Oc3ccc(Cl)cc3)c2)CC1 [Example 41, 4-[3-(4-Chloro-phenoxy)-benzyl]-piperazine-1-carboxylic acid isoxazolo[4,5-b]pyridin-3-ylamide]
25 | 16 nM |  | O=C(Nc1cnc2cccnn12)N1CCN(Cc2cccc(Oc3ccc(Cl)cc3)c2)CC1 [Example 1, 4-[3-(4-Chloro-phenoxy)-benzyl]-piperazine-1-carboxylic acid imidazo[1,2-b]pyridazin-3-ylamide]
26 | 16 nM |  | O=C(Nc1cnc2[nH]ccc2c1)N1CCN(Cc2cccc(Oc3ccc(Cl)cc3)c2)CC1 [Example 60, 4-[3-(4-Chloro-phenoxy)-benzyl]-piperazine-1-carboxylic acid (1H-pyrrolo[2,3-b]pyridin-5-yl)-amide]
27 | 7 nM |  | O=C(Nc1noc2ncccc12)N1CCN(Cc2cccc(Oc3ccc(Cl)cc3)c2)CC1 [Example 20, 4-[3-(4-Chloro-phenoxy)-benzyl]-piperazine-1-carboxylic acid isoxazolo[5,4-b]pyridin-3-ylamide]
28 | 6 nM |  | O=C(Nc1cccc2nccn12)N1CCN(Cc2cccc(Oc3ccc(Cl)cc3)c2)CC1 [Example 69, 4-[3-(4-Chloro-phenoxy)-benzyl]-piperazine-1-carboxylic acid imidazo[1,2-a]pyridin-5-ylamide]
